± gives the expanded uncertainty stated by the source.

Data set [1] in a line: an = ratio of the nth substance listed. The following applies: 298.15 K, 101 kPa, Liquid.
Data set [2] in a line: cn = amount concentration of the nth substance listed, in mol/dm3. The following applies: 298.15 K, 101 kPa, Liquid.

As for `O=C(O)CNCC(=O)O` [N-(carboxymethyl)glycine] + O, the mass density was found to be 1035.94 ± 0.32 kg/m3 in data set [1] (a1 = 0.1001); 1053.34 ± 0.36 kg/m3 in data set [1] (a1 = 0.1553); 1066.16 ± 0.4 kg/m3 in data set [1] (a1 = 0.193); 1072.41 ± 0.41 kg/m3 in data set [1] (a1 = 0.2113); 1074.86 ± 0.42 kg/m3 in data set [1] (a1 = 0.2201); 1076.92 ± 0.42 kg/m3 in data set [1] (a1 = 0.2258).

Take `O=C1CNC(=O)CN1` [2,5-diketopiperazine] + O: the mass density was 997.17 ± 0.29 kg/m3 in data set [1] (a1 = 0.0003); 997.34 ± 0.29 kg/m3 in data set [1] (a1 = 0.0007); 997.37 ± 0.29 kg/m3 in data set [1] (a1 = 0.0009); 997.92 ± 0.29 kg/m3 in data set [1] (a1 = 0.0026); 998.93 ± 0.28 kg/m3 in data set [1] (a1 = 0.0053); 1000.34 ± 0.28 kg/m3 in data set [1] (a1 = 0.0101). In addition, the mass density is 1001.42 ± 0.29 kg/m3 in data set [1] (a1 = 0.0134), 1002.16 ± 0.29 kg/m3 in data set [1] (a1 = 0.0157) and 1002.5 ± 0.29 kg/m3 in data set [1] (a1 = 0.0168).

Regarding `NCC(=O)O` [2-aminoacetic acid] + O, the mass density is on record as 1039.02 ± 0.39 kg/m3 in data set [1] (a1 = 0.1091); 1053.89 ± 0.42 kg/m3 in data set [1] (a1 = 0.1535); 1065.41 ± 0.46 kg/m3 in data set [1] (a1 = 0.1933); 1075.18 ± 0.48 kg/m3 in data set [1] (a1 = 0.2231); 1079.4 ± 0.49 kg/m3 in data set [1] (a1 = 0.239); 1080.36 ± 0.5 kg/m3 in data set [1] (a1 = 0.244). In data set [1] (a1 = 0.2509), the mass density is on record as 1082.99 ± 0.5 kg/m3.

Consider `NCC(=O)NCC(=O)NCC(=O)NCC(=O)O` [glycylglycylglycylglycine] + O, for which the mass density is given as 997.73 ± 0.29 kg/m3 in data set [1] (a1 = 0.0013); 998.04 ± 0.29 kg/m3 in data set [1] (a1 = 0.0023); 998.3 ± 0.29 kg/m3 in data set [1] (a1 = 0.0031); 998.38 ± 0.29 kg/m3 in data set [1] (a1 = 0.0033); 998.49 ± 0.29 kg/m3 in data set [1] (a1 = 0.0036); 998.55 ± 0.28 kg/m3 in data set [1] (a1 = 0.0038). For the same compound, in data set [1] (a1 = 0.0039), the mass density turned out to be 998.59 ± 0.28 kg/m3.

On to `NCC(=O)NCC(=O)NCC(=O)O` [glycylglycylglycine] + O, for which the mass density is listed as 1001 ± 0.28 kg/m3 in data set [1] (a1 = 0.0099); 1004.77 ± 0.29 kg/m3 in data set [1] (a1 = 0.0192); 1011.02 ± 0.31 kg/m3 in data set [1] (a1 = 0.0355); 1014.88 ± 0.32 kg/m3 in data set [1] (a1 = 0.0452); 1018.36 ± 0.33 kg/m3 in data set [1] (a1 = 0.0544); 1021.44 ± 0.34 kg/m3 in data set [1] (a1 = 0.0624). Also, in data set [1] (a1 = 0.0641), the mass density stood at 1022.05 ± 0.34 kg/m3.

In the case of `CC(=O)[O-].[K+]` [potassium ethanoate] + O, the values for the mass density in data set [2] (c1 = 1), in data set [2] (c1 = 2) and in data set [2] (c1 = 4) were 1043.58 ± 0.32 kg/m3, 1087.93 ± 0.43 kg/m3 and 1170.95 ± 0.64 kg/m3, respectively.

`[Cl-].[K+]` [potassium chloride] + O: the mass density in data set [2] (c1 = 1) is 1042.84 ± 0.32 kg/m3; in data set [2] (c1 = 2), 1082.33 ± 0.42 kg/m3; in data set [2] (c1 = 4), 1168.97 ± 0.63 kg/m3.

Consider `[Br-].[K+]` [potassium bromide] + O, for which the values for the mass density in data set [2] (c1 = 1), in data set [2] (c1 = 2) and in data set [2] (c1 = 4) were 1080.52 ± 0.42 kg/m3, 1162.26 ± 0.63 kg/m3 and 1323.4 ± 1.1 kg/m3, respectively.

As a reminder, the mass density is mass per unit of volume.

The values are drawn from the NIST ThermoML archive (doi:10.1016/j.jct.2006.11.014).
